Data from PubChem BioAssay (NCI).
Several values for one entry are separate records, joined by “and”; a condition that tells them apart may be missing. Equal entries are not always repeated.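 Five compound concentrations were applied to cells in 96-well plates for 48 hours; endpoints were derived by simple linear interpolation of the resulting dose-response curve. GI50 marks 50% less growth. TGI is the concentration that stops growth completely.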

How the values were obtained:
Assay in all cases: NCI-60 cell line screen, 48 h
[1] = system: NCI/ADR-RES ovarian
[2] = system: HOP-62 NSCLC
[3] = system: OVCAR-3 ovarian
[4] = system: RXF 393 renal
[5] = system: OVCAR-5 ovarian
[6] = system: SN12C renal
[7] = system: LOX IMVI melanoma
[8] = system: HCC-2998 colon
[9] = system: OVCAR-8 ovarian
[10] = system: T-47D breast

SMILES	GI50 [1]	TGI [1]	GI50 [2]	TGI [2]	GI50 [3]	TGI [3]	GI50 [4]	TGI [4]	GI50 [5]	TGI [5]	GI50 [6]	TGI [6]	GI50 [7]	TGI [7]	GI50 [8]	TGI [8]	GI50 [9]	TGI [9]	GI50 [10]	TGI [10]
CCC1=C(c2ccc(OC)cc2)C(C)(C)Oc2c1ccc(O)c2CN1CCCC1	3.05 µM	16 µM	1.99 µM	7.03 µM	4.13 µM	36.2 µM	1.24 µM	3.87 µM	4.1 µM	29.4 µM	3.74 µM	> 100 µM	1.46 µM	2.8 µM	1.44 µM	2.88 µM	2.11 µM	4.94 µM	1.45 µM	4.64 µM
COc1ccc(Br)cc1NC(=O)Nc1cccc2c1ccn2Cc1ccnc(N)c1	6.08 µM and > 10 µM	60.3 µM and > 10 µM	4.86 µM and > 10 µM	11.1 µM and > 10 µM	8.98 µM and > 10 µM	23.6 µM and > 10 µM	4.6 µM and 9.23 µM	16.1 µM and > 10 µM	12.7 µM and > 10 µM	58.4 µM and > 10 µM	5.48 µM and 7.26 µM	30.8 µM and > 10 µM	1.83 µM and 2.18 µM	3.66 µM and 5.14 µM	4.41 µM and 4.33 µM	10.1 µM and > 10 µM	5.94 µM and > 10 µM	23.3 µM and > 10 µM	3.3 µM and 3.9 µM	18.4 µM and > 10 µM
Cc1c(CN2CCN(C(=O)[C@H](C)O)CC2)sc2c(N3CCOCC3)nc(-c3cnc(N)nc3)nc12	0.663 µM and 0.408 µM	> 30.2 µM	0.548 µM and 0.182 µM	> 7.07 µM and 3.85 µM	0.202 µM and 0.182 µM	5.4 µM and 2.18 µM	0.0603 µM and 0.119 µM	0.443 µM and 0.543 µM	0.192 µM and 0.128 µM	> 10 µM and 4.3 µM	0.179 µM and 0.174 µM	> 100 µM	0.153 µM and 0.179 µM	3.05 µM and 2.64 µM	0.552 µM and 0.242 µM	9.79 µM and 13.1 µM	0.631 µM and 0.26 µM	> 10 µM and 2.34 µM	0.0145 µM and 0.0269 µM	0.332 µM and 0.175 µM
Cc1c(Cn2c(C)nc3c(C(=O)O)cc(N4CCOCC4)cc32)cccc1C(F)(F)F	4.99 µM	40.6 µM	37.5 µM	> 100 µM	52.3 µM	> 100 µM	0.719 µM	> 63.4 µM	81.7 µM	> 100 µM	41.5 µM	> 100 µM	60.7 µM	> 100 µM	72.4 µM	> 100 µM	33.7 µM	> 100 µM	36.7 µM	> 100 µM
O=C(O)/C=C/c1ccc(Oc2ccccc2C(=O)O)o1		> 10 µM		> 10 µM								> 10 µM		> 10 µM		> 10 µM		> 10 µM		> 10 µM
C(=N\Nc1ncc(-c2cc3cc4c(cc3o2)OCO4)s1)/c1ccco1	2.21 µM	> 100 µM	3.04 µM	12.6 µM			1.8 µM	5.13 µM	2.71 µM	8.67 µM	2.97 µM	12.7 µM	1.35 µM	2.76 µM	3.52 µM	12.9 µM	2.8 µM	> 100 µM	1.27 µM	9.74 µM
Fc1cccc(COc2ccc(Nc3ncnc4onc(-c5ccccc5)c34)cc2)c1	3.02 µM	15.7 µM	0.406 µM	> 100 µM	0.252 µM	2.19 µM	0.219 µM	1.35 µM	0.34 µM	29.3 µM	0.347 µM	> 100 µM	0.125 µM	> 100 µM	0.287 µM	16.8 µM	0.262 µM	> 100 µM	0.218 µM	> 100 µM
COc1ccc(NC(=O)Oc2ccc3c(C)cc(=O)oc3c2)c(OC)c1 (tested in a mixture with another compound)		> 100 µM		> 100 µM		> 100 µM		> 100 µM		> 100 µM		> 100 µM				> 100 µM		> 100 µM		> 100 µM
NC(=O)CC1OC(=O)Cc2cc3c(c(O)c21)C(=O)c1c(O)cccc1C3=O (centres undefined)		> 100 µM								> 100 µM		> 100 µM		> 100 µM		> 100 µM		> 100 µM		> 100 µM
Cc1ccc(OP(=O)(Oc2ccc(C)cc2)N2C=Cc3ccccc3C2C#N)cc1 (centres undefined)		> 100 µM		> 100 µM		> 100 µM		> 100 µM		> 100 µM		> 100 µM		> 100 µM				> 100 µM		> 100 µM
COc1cc(-n2ccnc2-c2ccc3ccccc3c2)cc(OC)c1OC		0.472 µM	0.0895 µM	26 µM	0.0288 µM	19.4 µM	0.17 µM	0.749 µM	0.408 µM	> 93.6 µM	1.64 µM	> 59 µM	1.08 µM	> 47.6 µM	< 0.0318 µM	0.199 µM	0.398 µM	> 53.1 µM	0.633 µM	60.7 µM
CC1(C)N=C(N)N=C(N)N1c1ccc(CNC(=O)Nc2ccc(S(=O)(=O)F)c(Cl)c2)c(Cl)c1	> 90.8 µM	> 100 µM	9.81 µM	> 100 µM	6.34 µM	> 100 µM	0.525 µM	> 100 µM	0.332 µM	> 100 µM	0.867 µM	> 100 µM	0.396 µM	> 100 µM	1.11 µM	> 100 µM	2.08 µM	> 100 µM	11.6 µM	> 100 µM
CC(C)(C)OC(=O)NCC(CNC(=O)OC(C)(C)C)C(N)=O		> 100 µM		> 100 µM		> 100 µM		> 100 µM		> 100 µM		> 100 µM		> 100 µM		> 100 µM		> 100 µM		> 100 µM
CCOC(=O)c1[nH]c2cc(Cl)ccc2c1[C@@H](C(=O)NC(C)(C)C)N(CC)C(=O)CCCCC#Cc1cccc2c1CN(C1CCC(=O)NC1=O)C2=O (some centres undefined)	1.19 µM	> 100 µM	< 0.01 µM	6.81 µM	1.58 µM	> 38.9 µM	0.113 µM	3.91 µM	2.08 µM	40.2 µM	0.283 µM	> 100 µM	3.18 µM	> 86.5 µM	0.225 µM	58 µM	< 0.01 µM	35 µM	< 0.01 µM	7.59 µM
